Data on 63 compounds can be found in a melting point compilation (Tetko et al.; mined from patent text by program, amines drawn as free bases though some values may be those of a salt).

As usually defined, the melting point is the temperature, or range, at which the solid turns liquid. In turn, `CCOCOCCCc1ccc(C(=O)O)cc1C12CC3CC(CC(C3)C1)C2` returned a melting point of 115 °C.

Turning to `Cc1cccc(C(=O)NN(C(=O)c2ccccc2)C(C)(C)C)c1`, the melting point is 111 to 114 °C.

Turning to `CCOC(=O)c1nc(C(C)(C)C)nc2ccccc12`, the melting point was in the range of 46 to 47 °C.

With `ON=Cc1cc(Br)ccc1OCc1ccccc1`, the melting point lay within 132 to 134 °C.

As for `CC1(C)C(CC(Cl)(Cl)Cl)C1C(=O)O` (stereo not drawn), the melting point fell in the range of 85 to 89 °C.

Compound `N#Cc1ccc(OCCC2CCN(c3cc(Cl)nnc3Cl)CC2)cc1` registered a melting point of 138 to 139 °C.

On to `CC(C)(C)OC(=O)N1CCN(C(=O)/C=C/c2ccc(Sc3ccc4c(c3)OCCO4)c([N+](=O)[O-])c2)CC1`, for which the melting point was 165 to 167 °C.

With `CCOC(=O)c1c(CCl)nc2sc3c(c2c1-c1ccc(OC)c(OC)c1)CCCN3C(=O)OCc1ccccc1`, the melting point was in the range of 178 to 179 °C.

In turn, `Cc1cccc(CN2CCc3ccc(C(=O)CCC(=O)N4CCC(c5ccc(Cl)cc5)CC4)cc3CC2)c1` yielded a melting point of 127 to 128 °C.

The compound `Fc1ccc2c(c1)nc(/C=C/C1CCCCC1)n2-c1ccccn1` came in with a melting point of 109 to 110 °C.

Take `CC(C)(C)Oc1ccc(O)c(C(=O)O)c1`: the melting point was determined as 282 °C.

As for `CC(=O)OC1CC2=CCC3C4CCC(C(C)CBr)C4(C)CCC3C2(C)C(OC(C)=O)C1` (stereo not drawn), the melting point fell in the range of 75 to 76 °C.

Consider `COC(=O)C(OC)(OC)C(=O)Nc1ccc(Br)cc1C`, for which the melting point fell in the range of 99 to 103 °C.

As to `O=C(NCCCCCCCCCNC(=O)c1ccc(OC(F)(F)F)cc1)c1ccc(OC(F)(F)F)cc1`, the melting point lay in the range of 144 to 145 °C.

In turn, `CCOC(=O)C1=C(N)C(OCC)=NS1=O` (stereo not drawn) registered a melting point of 154 to 155 °C.

`Cn1c(COc2ccc(CC3SC(=O)NC3=O)cc2)nc2ccc(Oc3ccc(NC(=O)c4ccc(F)cc4F)cc3)cc21` (stereo not drawn) gave a melting point of 172 to 174 °C.

`CC1(C(O)(Cc2ccc(F)cc2)Cn2cncn2)CC1(F)F` (stereo not drawn) showed a melting point of 114 °C.

`O=C(O)COc1ccc2c(=O)c3c(oc2c1)C(=Cc1ccccc1)CC3` came in with a melting point of 277 to 279 °C.

Take `COc1cc(OC)c(-c2nc(N3CC(C)NC(C)C3)c3c(C)c(C#N)sc3n2)cc1OC` (stereo not drawn): the melting point fell in the range of 186 to 188 °C.

Compound `C(=C(c1ccccc1)N(c1ccccc1)c1ccccc1)c1cccc2ccccc12` gave a melting point of 170 to 172 °C.

In the case of `CC(=O)N1c2ccccc2-c2c([N+](=O)[O-])cnn2C1c1ccc(Cl)cc1` (stereo not drawn), the melting point was in the range of 183 to 184 °C.

Consider `CCOC(=N)c1c(O)ccc2ccccc12`, for which the melting point is 145 to 146 °C.

Turning to `O=C(NNS(=O)(=O)c1ccccc1)c1ccccc1Br`, the melting point lay within 154 to 156 °C.

Compound `CCCOC(=O)CC(c1ccc(OC)cc1)N1C(=O)c2ccccc2C1=O` (stereo not drawn) gave a melting point of 51.2 to 52.8 °C.

`COc1cc2ncnc(N3CCC(C(C)CN4CCCS4(=O)=O)CC3)c2cc1OC` (stereo not drawn) showed a melting point of 129 to 131 °C.

The compound `Cc1ccccc1-n1c(CCl)nc2ccccc2c1=O` had a melting point of 205 to 206 °C.

With `COC(=O)C1=C(CC(=O)N2CCN(C)CC2)NC(CS(=O)c2ccccc2OC)=C(C(=O)OC)C1c1c(Cl)cccc1Cl` (stereo not drawn), the melting point came to 160 °C.

For `CCCC(=O)Nc1cc(/C=C/C(=O)N2CC(CCl)c3ccc(NC(=O)OCc4ccc([N+](=O)[O-])cc4)cc32)n(C)c1` (stereo not drawn), the melting point is 207 to 210 °C.

Turning to `O=C(Nc1ccncc1)c1n[nH]c2ccc(-c3cncc4ccccc34)cc12`, the melting point was > 250 °C.

On to `c1ccc(C2CNc3c(cnc4ccccc34)O2)cc1` (stereo not drawn), for which the melting point was 194 to 195 °C.

Compound `CCC(I)CCCC(F)(F)C(F)(F)C(F)(F)C(F)(F)C(F)(F)C(F)(F)C(F)(F)C(F)(F)F` (stereo not drawn) displayed a melting point of 46 to 47 °C.

With `COc1cc(I)c(CC(C)N2CCCC2)cc1OC` (stereo not drawn), the melting point was 87 to 88 °C.

Turning to `Cc1oc(-c2ccccc2)nc1COc1ccc(C(C)CCCC#N)cc1` (stereo not drawn), the melting point fell in the range of 76 to 77 °C.

As for `COC(=O)C1Cc2c([nH]c3ccccc23)C(c2cc(OC)ccc2OC)N1` (stereo not drawn), the melting point lay within 102 to 105 °C.

As to `Cc1cccc(C)c1N1CCN(CCC2CN(C)C(=O)O2)CC1` (stereo not drawn), the melting point was 107 to 108 °C.

On to `CCSC1=N[C@@H](c2ccccc2)[C@H](c2ccccc2)N1` (relative stereo), for which the melting point lay in the range of 130 to 132 °C.

Consider `CC(C)(C)OC(=O)c1ccsc1NC(=O)Nc1ccc(Oc2ccccc2)cc1`, for which the melting point is 203 to 205 °C.

In the case of `COc1cc(-n2c(OC)nc(C(F)(F)F)cc2=O)c(F)cc1Br`, the melting point fell in the range of 175 to 177 °C.

Regarding `CCCCCNC(=O)[C@@H]1CCCN1C(=O)[C@H](C)NC(=O)CC`, the melting point fell in the range of 105 to 108 °C.

The compound `CC(C)(C)OC(=O)N1CCN(c2ccc(OCc3ccccc3)cn2)CC1` showed a melting point of 93 to 94 °C.

Compound `CNc1nc(Cl)c(OC(F)F)c(OC)n1` came in with a melting point of 49 to 53 °C.

For `CCCN(CCC)C1Cc2cc3c(cc2C1)C(=O)NC3` (stereo not drawn), the melting point was 206 to 208 °C.

`CCOc1ccc(S(=O)(=O)N2CCN(CC)CC2)cc1C#N` had a melting point of 86 to 88 °C.

`CCCCNc1cc(C#N)cc(S(N)(=O)=O)c1Oc1ccccc1` had a melting point of 217 to 218 °C.

`O=C(Cn1ccnc1)c1ccc(Cl)cn1` returned a melting point of 122 to 129 °C.

The compound `Cc1nc[nH]c1CSCCNC(=C[N+](=O)[O-])NCCSCc1nccs1` showed a melting point of 119 to 120 °C.

Turning to `O=c1[nH]c(=Cc2ccc(OCc3ccccc3)cn2)c(=O)[nH]c1=Cc1ccc(Cl)c(Cl)c1`, the melting point fell in the range of 264 to 265 °C.

The compound `CCC(CC)(CC(=O)Nc1cccc(OCc2ccc3ccc(F)cc3n2)c1)C(=O)O` yielded a melting point of 92 to 93 °C.

Regarding `COCOc1ccc(CCCO)c(Oc2ncc(C(F)(F)F)cc2Cl)c1`, the melting point lay in the range of 92.5 to 93.5 °C.

The compound `CCC1(CC)c2cc(C)c(C)cc2C(CC)(CC)N1OC(C)=O` had a melting point of 80 to 82 °C.

Regarding `O=CN[C@H]1CC[C@H](CCN2CCC(c3cccc4c3CCO4)CC2)CC1`, the melting point is 142 °C.

Compound `CCNc1ccnc(Cl)c1` registered a melting point of 55 to 57 °C.

In turn, `CCc1nn(-c2ccc3cc(-c4ccc(-n5cnnc5)cc4)c(=O)oc3c2)nc1C` showed a melting point of 321 to 323 °C.

In the case of `CSc1nc(-c2ccccn2)n(-c2ccc(C)cc2)c(=O)c1C#N`, the melting point was in the range of 247 to 248 °C.

`COc1cccc2c1C(C)(C)C(=O)N2` showed a melting point of 143 to 144 °C.

`CCOc1cc(CCCN2CCc3cc(OC)c(OC)cc3C2)ccc1NC(=O)c1cccc2c(=O)c3cccc(F)c3[nH]c12` showed a melting point of 200 °C.

In the case of `O=C(Cn1c(-c2ccccc2)ncc(NS(=O)(=O)c2ccccc2)c1=O)NC(Cc1ccccc1)C(=O)C(F)(F)F` (stereo not drawn), the melting point lay in the range of 92 to 94 °C.

`O=C(CCl)Nc1ccc(NNC(=O)c2ccccc2CO)cc1` came in with a melting point of 172 to 173 °C.

Take `COc1ccc(CCNS(=O)(=O)Cc2ccc3[nH]cc(CCN)c3c2)cc1`: the melting point lay within 128 to 129 °C.

For the compound `O=C(C=Cc1ccc(Br)s1)Nc1nnn[nH]1`, the melting point worked out at 268 °C.

With `O=c1occc2ccc(Oc3ccc(Cl)cc3)cc12`, the melting point lay within 76.5 to 77 °C.

In turn, `Cc1cc(C2=C(Cl)CCN(C(=O)c3ccccc3)C2)no1` yielded a melting point of 86 to 87 °C.

For the compound `CCOC(=O)Cn1c(CC)nc2c(OCc3ccc(OC)cc3)cccc21`, the melting point worked out at 112 °C.
